System: SARS-CoV-2
Type: cell-based, strain USA_WA1/2020
Settings: for time of addition: single treatment 1 h prior to infection, compound removed prior to infection: VPS34-IN1 and PIK-III at 5 μM

Row | Structure (SMILES) | time of addition: single treatment 1 h prior to infection, compound removed prior to infection | time of addition: dosing at 2 hpi or 4 hpi
1 | Nc1ncc(-c2ccnc(Nc3ccncc3)n2)c(CC2CC2)n1 [PIK-III] | inhibited SARS-CoV-2 replication | 
2 | CC(C)(O)CNc1ncc(-c2ccnc(Nc3ccnc(Cl)c3)n2)c(CC2CC2)n1 [VPS34-IN1] | inhibited SARS-CoV-2 replication | 
3 | CCCCCCCCCCC[C@@H](C[C@@H]1OC(=O)[C@H]1CCCCCC)OC(=O)[C@H](CC(C)C)NC=O [orlistat] | minimal efficacy | remained inhibitory
4 | CCC/C=C/C/C=C/C=C/C=N/NN=O [triacsin C] | minimal efficacy | remained inhibitory

Source: publication PMC8289695 (Cell Reports, 2021)
